Data set [1] has as its system dairy cattle. Put plainly: Tolerability limits: intake limits of minerals for dairy cattle. The data set is classed as in vivo.
In data set [2] the test system is dairy cattle. The conditions noted are these: cited from earlier work.
The subject of data set [3] is dairy cattle. Put plainly: Methane intensity versus normalized bromoform intake (Asparagopsis quantity calculation). The data set is classed as in vivo. The conditions noted are these: regression constant. The protocol:
In still another embodiment, a regression constant is determined. The regression constant relates the amount of bromoform required to achieve a set percentage of methane reduction per amount of neutral detergent fiber present in the animal's diet. Thus, the algorithm comprises the steps of: i) Determining the target methane reduction percentage and subsequently the target absolute reduction (g CH4/kg milk); ii) Determining cow's NDF intake, based on dry matter intake (DMI) and NDF proportion; iii) Determining the normalized bromoform concentration required (equivalent to the desired absolute reduction divided by the regression constant, where the regression constant is the Reduction in methane intensity (g CH4/kg milk) per unit normalized bromoform intake (mg/kg of NDF); iv) Multiplying by the NDF intake to determine the required bromoform concentration (mg) and v) Dividing by the bromoform concentration in that seaweed to determine amount of seaweed required.

The nature of data set [4]: In vivo fate of bromoform delivered from red macroalgae feed supplement. Set-up: species or system livestock.
For a further data set, the system named is livestock rumens. Put plainly: Rumen propionate:acetate ratio and meat trans fat in livestock fed red algae. The conditions noted are these: in vitro and in vivo testing. From the text: It is known that bromoform is safely and usefully degraded in anaerobic environments like livestock rumens where the enzyme methyl-coenzyme M reductase is present.
Setting [5] is: dairy cattle, at the maximum allowable limit.

Where two headings read alike, the source gives them in different places.

The values below come from US12667118B2, “Compositions comprising algae and methods of using same for increasing animal product production” (BLUE OCEAN BARNS, priority 2020, dated 2026).

Consider `S1SSSSSSS1` [Sulfur], for which the “Intake for a Cow Consuming 20.14 kg DM/day” value with dairy cattle [1] (setting [5]) is given as 60420 mg/day. Moreover, the “Maximum Allowable Component Intake Limit per Daily kg of DM Consumption” value in the data set on dairy cattle [2] (dairy cattle) is on record as 3000 mg/kg DMI.

As to `[Se]` [Selenium], the “Intake for a Cow Consuming 20.14 kg DM/day” value in the data set with dairy cattle [1] (setting [5]) was 101 mg/day. In addition, the “Maximum Allowable Component Intake Limit per Daily kg of DM Consumption” value in the data set on dairy cattle [2] (bovine, in vivo) was 5 mg/kg DMI.

On to Sodium, for which the “Intake for a Cow Consuming 20.14 kg DM/day” value in the data set on dairy cattle [1] (setting [5]) turned out to be 1706704 mg/day. For the same molecule, the “Maximum Allowable Component Intake Limit per Daily kg of DM Consumption” value with dairy cattle [2] (dairy cattle) was 84742 mg/kg DMI.

As for `[Al]` [Aluminum], the “Intake for a Cow Consuming 20.14 kg DM/day” value in the data set on dairy cattle [1] (bovine, in vivo) amounted to 20140 mg/day. The “Maximum Allowable Component Intake Limit per Daily kg of DM Consumption” value in the data set on dairy cattle [2] (bovine, in vivo) is 1000 mg/kg DMI.

As to `[Cd]` [Cadmium], in the data set on dairy cattle [1] (setting [5]), the “Intake for a Cow Consuming 20.14 kg DM/day” value was found to be 201 mg/day. In addition, the “Maximum Allowable Component Intake Limit per Daily kg of DM Consumption” value with dairy cattle [2] (dairy cattle) is given as 10 mg/kg DMI.

Take `BrC(Br)Br` [bromoform]: the “Slope-Reduction in methane intensity (g CH4/kg milk) per normalized unit bromoform intake (mg/kg of NDF)” value in the data set with dairy cattle [3] is −0.049 g CH4/kg milk per mg/kg of NDF. Besides, in data set [4], the “absorption of bromoform into rumen wall or other organs” value is reported as “not absorbed into the rumen wall, or other organs” and the “bromoform in milk, meat or manure” value is on record as “not found”. Besides, in the data set with livestock rumens, the “propionate:acetate ratios in livestock rumens” value is listed as “increases the propionate:acetate ratios”.

`[Mg+2]` [Magnesium]: the “Intake for a Cow Consuming 20.14 kg DM/day” value in the data set with dairy cattle [1] (bovine, in vivo) is reported as 120840 mg/day. The “Maximum Allowable Component Intake Limit per Daily kg of DM Consumption” value in the data set on dairy cattle [2] (dairy cattle) was 6000 mg/kg DMI.

For Arsenic, the “Intake for a Cow Consuming 20.14 kg DM/day” value with dairy cattle [1] (setting [5]) is listed as 604 mg/day. Also, the “Maximum Allowable Component Intake Limit per Daily kg of DM Consumption” value in the data set with dairy cattle [2] (dairy cattle) is given as 30 mg/kg DMI.

With `[K+]` [Potassium], in the data set on dairy cattle [1] (bovine, in vivo), the “Intake for a Cow Consuming 20.14 kg DM/day” value is reported as 402800 mg/day. The “Maximum Allowable Component Intake Limit per Daily kg of DM Consumption” value with dairy cattle [2] (bovine, in vivo) is recorded as 20000 mg/kg DMI.

For `[Mo]` [Molybdenum], the “Intake for a Cow Consuming 20.14 kg DM/day” value in the data set on dairy cattle [1] (bovine, in vivo) was determined as 101 mg/day. Besides, the “Maximum Allowable Component Intake Limit per Daily kg of DM Consumption” value in the data set on dairy cattle [2] (bovine, in vivo) is 5 mg/kg DMI.

Consider `[Co]` [Cobalt], for which the “Intake for a Cow Consuming 20.14 kg DM/day” value in the data set with dairy cattle [1] (setting [5]) is listed as 504 mg/day. Also, in the data set on dairy cattle [2] (dairy cattle), the “Maximum Allowable Component Intake Limit per Daily kg of DM Consumption” value is on record as 25 mg/kg DMI.

For the molecule `[Pb]` [Lead], the “Intake for a Cow Consuming 20.14 kg DM/day” value in the data set on dairy cattle [1] (setting [5]) turned out to be 2014 mg/day. Further, the “Maximum Allowable Component Intake Limit per Daily kg of DM Consumption” value in the data set with dairy cattle [2] (dairy cattle) was 100 mg/kg DMI.

For the molecule `[Zn]` [Zinc], the “Intake for a Cow Consuming 20.14 kg DM/day” value in the data set on dairy cattle [1] (setting [5]) is reported as 10070 mg/day. The “Maximum Allowable Component Intake Limit per Daily kg of DM Consumption” value in the data set on dairy cattle [2] (dairy cattle) is 500 mg/kg DMI.

Regarding `[Cr]` [Chromium], the “Intake for a Cow Consuming 20.14 kg DM/day” value in the data set with dairy cattle [1] (setting [5]) worked out at 2014 mg/day. Moreover, in the data set on dairy cattle [2] (dairy cattle), the “Maximum Allowable Component Intake Limit per Daily kg of DM Consumption” value is 100 mg/kg DMI.

For the molecule `[Fe]` [Iron], the “Intake for a Cow Consuming 20.14 kg DM/day” value in the data set with dairy cattle [1] (bovine, in vivo) was 10070 mg/day. Moreover, the “Maximum Allowable Component Intake Limit per Daily kg of DM Consumption” value in the data set with dairy cattle [2] (bovine, in vivo) is 500 mg/kg DMI.

Turning to `[Ca+2]` [Calcium], the “Intake for a Cow Consuming 20.14 kg DM/day” value in the data set on dairy cattle [1] (setting [5]) stood at 302100 mg/day. Also, in the data set on dairy cattle [2] (dairy cattle), the “Maximum Allowable Component Intake Limit per Daily kg of DM Consumption” value is 15000 mg/kg DMI.

For Copper, the “Intake for a Cow Consuming 20.14 kg DM/day” value in the data set with dairy cattle [1] (bovine, in vivo) was determined as 806 mg/day. Besides, in the data set on dairy cattle [2] (bovine, in vivo), the “Maximum Allowable Component Intake Limit per Daily kg of DM Consumption” value was 40 mg/kg DMI.

For `[B]` [Boron], the “Intake for a Cow Consuming 20.14 kg DM/day” value in the data set with dairy cattle [1] (bovine, in vivo) turned out to be 3021 mg/day. In addition, the “Maximum Allowable Component Intake Limit per Daily kg of DM Consumption” value with dairy cattle [2] (bovine, in vivo) is 150 mg/kg DMI.

For the molecule Phosphorous, the “Intake for a Cow Consuming 20.14 kg DM/day” value in the data set on dairy cattle [1] (bovine, in vivo) is 140980 mg/day. In the data set on dairy cattle [2] (bovine, in vivo), the “Maximum Allowable Component Intake Limit per Daily kg of DM Consumption” value was 7000 mg/kg DMI.

With `[Mn+2]` [Manganese], the “Intake for a Cow Consuming 20.14 kg DM/day” value with dairy cattle [1] (setting [5]) is listed as 40280 mg/day. In addition, in the data set on dairy cattle [2] (dairy cattle), the “Maximum Allowable Component Intake Limit per Daily kg of DM Consumption” value is on record as 2000 mg/kg DMI.
